What was measured:
[1] = tested on: Ph+ALL strain KOPN57bi; experiment: H^3-thymidine uptake method, Ph+ALL strain KOPN57bi; format: cell-based; details: Homo sapiens, 144 h, read-out: % inhibition of H^3-thymidine uptake
Text: Effect in the combination was recognized from 2 days in the culture, and % inhibition reached to 90% or more on 3 days in the culture.

[2] = tested on: Ph+ALL cell strain (KOPN57bi); experiment: Cell turnover by PI staining, flow cytometry; format: cell-based, human; details: LMD 20 μM, IM 0.5 μM, 3 days
Experimental: When PI staining is performed under the condition that the cell membrane/nuclear membrane is fixed with a drug and PI can freely bind to intranuclear DNA, staining intensity changes depending on amount of DNA. Thus, cell turnover stop phase (G0/G1 phase, 2N), DNA synthesis phase (S phase, 2N→4N), pre-cell division phase (G2 phase, 4N) and cell division phase (M phase, 4N→2N) can be distinguished each other by using flow cytometry. In addition, when the cell death is induced by apoptosis, a cell fraction that DNA amount decreases by DNA cleavage (less than 2N) from the G0/G1 phase is detected.

[3] = tested on: Ph+ALL cell strain (KOPN57bi); experiment: Viable cells by alamar blue method; format: cell-based, human; details: LMD 20 μM, IM 0.5 μM, 3 days
[4] = tested on: Ph+ALL cell strain (KOPN57bi); experiment: Apoptosis by active caspase-3 antibody, flow cytometry; format: cell-based, human; details: LMD 20 μM, IM 0.5 μM, 3 days, compared with no addition
Text: After fixation of cell membrane, the cells were stained with anti-active caspase-3 antibodies and positive cells were investigated by using flow cytometry.

[5] = tested on: Ph+ALL cell strain (KOPN57bi); experiment: Immunodeficient mice transplanted with Ph+ALL cells, in vivo; design: species or system NOD/SCID/γ null mouse (NOG mouse); details: NOG mouse; LMD 30 mg/kg/day, IM 150 mg/kg/day, PO; two weeks after administration; saline approximately 30%
Text: NOD/SCID/γ null mouse (NOG mouse) is widely used for research as immunodeficient mouse capable of efficiently transplanting human hematopoietic stem cells or tumor cells. A mouse transplanted with human leukemia cells is a system that can study therapeutic effect of a drug on human leukemia cells in the mouse body (in vivo). […] The mice were observed over time. Proportion of Ph+ALL cells in mononuclear cell fraction was investigated by using flow cytometry after isolating mononuclear cell fraction from mouse bone marrow blood two weeks after administration and staining with anti-human CD45 antibody binding to human leukemia cells.

[6] = tested on: Ph+ALL cell strain (KOPN57bi); experiment: Cell death by Annexin V/propidium iodide (PI) double staining, flow cytometry; details: Homo sapiens, 72 h, read-out: viable cell fraction (Annexin V-, PI-)
Text: At an early stage of cell death, specific phospholipids are exposed on the cell membrane. By labeling Annexin V, which strongly binds to the phospholipid, with a fluorescent dye, rate of the early cell death can be detected by using flow cytometry. On the other hand, at a late stage of cell death, cell membrane/nuclear membrane is partially destroyed.

[7] = tested on: IKZF1 protein; experiment: Change of IKZF1 expression by western blotting; format: cell-based, human; details: KOPN57bi; LMD 20 μM, IM 0.5 nM; 24 hours

SMILES | inhibition at 20 µM [1] [%] | S phase fraction [2] | apoptotic fraction (less than 2N) [2] | number of viable cells (alamar blue) [3] | active caspase-3 positive rate [4] | proportion of Ph+ALL cells (human CD45 positive) in bone marrow mononuclear cell fraction [5] [%] | viability at 20 µM [6] [%] | expression of dominant-negative isoform (Ik 6) [7]
Nc1cccc2c1CN(C1CCC(=O)NC1=O)C2=O (racemic) [LMD, (RS)-3-(4-amino-1-oxo-3H-isoindol-2-yl) piperidine-2,6-dione] | ~80 | decrease | mild increase | mildly decreased | slightly increased | 2.1 | ~60 | –
Cc1ccc(NC(=O)c2ccc(CN3CCN(C)CC3)cc2)cc1Nc1nccc(-c2cccnc2)n1 [IM, 4-(4-Methylpiperazin-1-ylmethyl)-N-[4-methyl-3-(4-pyridin-3-ylpyrimidin-2-ylamino)benzamide monomethanesulfonate] | – | – | – | mildly decreased | slightly increased | – | – | No change
